{"source": "patent US20100168420A1", "about": "“Taxol Derivatives With Antitumor Activity” (priority 2007, published 2010)", "key": {"[1]": {"test_system": "human A549 NSCLC tumors", "assay": "Therapeutic effects of SHR-110008 and Taxotere against xenografts of human A549 NSCLC tumors in nude mice (Test Example 1)", "conditions": "for RTV X ± SD / T/C (%) / T/C (%) (weighing method) / Weight of tumors (g) x ± SD: 14th day; for T/C (%): from RTV; for T/C (%) (weighing method): from weight of tumors; for Weight of tumors (g) x ± SD: weighing method; for TV (X ± SD, mm^3) d0 / Body weight (g) d0: d0: time of the first dosage; for TV (X ± SD, mm^3) dn / Body weight (g) dn: dn: 14th day after the first dosage", "procedure": "Numbers of animals: 9 mice in control group, 5 mice in medication administration team.\nAnimals were adapted in animal house for 1 week and were hypodermic inoculated human A549 NSCLC tumors. After tumors grew to 100-300 mm^3, mice were randomly divided into teams of SHR-110008 and Taxotere(d0). The doses of SHR-110008 were 10 and 16 mg/kg, and the doses of Taxotere were 12 and 19 mg/kg, separately. The route of administration is intravenous injection. SHR-110008(10 mg/kg) and Taxotere (12 mg/kg) were administrated on d0, d4, d8, a total of three times. SHR-110008(16 mg/kg) and Taxotere (19 mg/kg) were administrated on d0, d7, a total of two times. The volume of tumors and weights of the mice were measured for 2-3 times per week. The calculation formula of the volume of tumor (V) is: V=1/2×a×b^2, a: length of tumor, b: width of tumor."}, "[2]": {"test_system": "human A549 NSCLC tumors", "assay": "Therapeutic effects of SHR1021-47 against xenografts of human A549 NSCLC tumors in nude mice (Test Example 2)", "type": "in vivo, BALB/cA-nude mice", "conditions": "12 mg/kg iv, d0, d7", "method": "Animal species: BALB/cA-nude mice.\nNumbers of animals: 12 mice in control group, 6 mice in medication administration team.\nCell culture: Human A549 NSCLC tumor cells were cultured in vitro remaining on logarithmic growth phase.\nTransplantation: Take the prepared cells to inoculate subcutaneously to the nude mice.\nInoculation: Take the tumor lump to inoculate in one side of oxter on the condition of asepsis.\nGrouping and dose design: Measure the diameter of transplantation tumor by sliding caliper. After tumors grew to 100-250 mm^3, mice were randomly divided into groups of Shr1021-47 (8 mg/kg, 12 mg/kg, 16 mg/kg) and Taxotere (12 mg/kg).\nAdministration route and time: iv administration. Shr1021-47 and Taxotere were administrated on d0, d7, 2 times in all. Measure the volume of tumor and weigh the mice 2-3 times per week.\nCalculate the relative tumor volume (RTV) according to the measurements. The formula is: RTVI=Vt/V0. V0 refers to the volume of tumor on d0; Vt refers to the volume of tumor on every measurement. The index of antitumor activity is T/C(%). The formula is: T/C(%)=TRTV/CRTV×100, TRTV: RTV of treatment group, CRTV: RTV of control group."}, "[3]": {"conditions": "under the suitable dose schedule, conclusion in words"}, "[4]": {"conditions": "dn: 14th day after the first dosage"}}, "note": "Marks after values point to notes of the source that are not given here.", "data": [{"smiles": "CC(=O)O[C@@]12CO[C@@H]1C[C@H](O)[C@@]1(C)[C@@H]3OC(CN4C[C@@H]5C[C@H]4CO5)O[C@@H]3C3=C(C)[C@@H](OC(=O)[C@H](O)[C@@H](NC(=O)OC(C)(C)C)c4ccccc4)C[C@@](O)([C@@H](OC(=O)c4ccccc4)[C@H]21)C3(C)C", "note": "(stereo partly drawn) [SHR-110008]", "values": [{"measurement": "RTV X ± SD", "setting": "[1]; 10 mg/kg i.v., d0, 4, 8", "result": "10.81 ± 1.79"}, {"measurement": "T/C (%)", "setting": "[1]; 10 mg/kg i.v., d0, 4, 8", "result": "48.8* %"}, {"measurement": "T/C (%) (weighing method)", "setting": "[1]; 10 mg/kg i.v., d0, 4, 8", "result": "38.6* %"}, {"measurement": "Weight of tumors (g) x ± SD", "setting": "[1]; 10 mg/kg i.v., d0, 4, 8", "result": "1.59 ± 0.57", "unit": "g"}, {"measurement": "TV (X ± SD, mm^3) d0", "setting": "[1]; 10 mg/kg i.v., d0, 4, 8", "result": "129 ± 20", "unit": "mm^3"}, {"measurement": "TV (X ± SD, mm^3) dn", "setting": "[1]; 10 mg/kg i.v., d0, 4, 8", "result": "1383 ± 243", "unit": "mm^3"}, {"measurement": "RTV X ± SD", "setting": "[1]; 16 mg/kg i.v., d0, 7", "result": "4.41 ± 2.43"}, {"measurement": "T/C (%)", "setting": "[1]; 16 mg/kg i.v., d0, 7", "result": "19.9* %"}, {"measurement": "T/C (%) (weighing method)", "setting": "[1]; 16 mg/kg i.v., d0, 7", "result": "74.1* %"}, {"measurement": "Weight of tumors (g) x ± SD", "setting": "[1]; 16 mg/kg i.v., d0, 7", "result": "0.67 ± 0.23", "unit": "g"}, {"measurement": "TV (X ± SD, mm^3) d0", "setting": "[1]; 16 mg/kg i.v., d0, 7", "result": "143 ± 38", "unit": "mm^3"}, {"measurement": "TV (X ± SD, mm^3) dn", "setting": "[1]; 16 mg/kg i.v., d0, 7", "result": "612 ± 340", "unit": "mm^3"}, {"measurement": "therapeutic effect compared with Taxotere", "setting": "[1]; [3]", "result": "better than that of Taxotere"}, {"measurement": "toxicity compared with Taxotere", "setting": "[1]; [3]", "result": "better than that of Taxotere"}]}, {"smiles": "CC(=O)O[C@@]12CO[C@@H]1C[C@H](O)[C@@]1(C)C(=O)[C@H](O)C3=C(C)[C@@H](OC(=O)[C@H](O)[C@@H](NC(=O)OC(C)(C)C)c4ccccc4)C[C@@](O)([C@@H](OC(=O)c4ccccc4)[C@H]21)C3(C)C", "note": "[Taxotere]", "values": [{"measurement": "RTV X ± SD", "setting": "[1]; 12 mg/kg i.v., d0, 4, 8", "result": "8.65 ± 5.83"}, {"measurement": "T/C (%)", "setting": "[1]; 12 mg/kg i.v., d0, 4, 8", "result": "39.1* %"}, {"measurement": "T/C (%) (weighing method)", "setting": "[1]; 12 mg/kg i.v., d0, 4, 8", "result": "51.7* %"}, {"measurement": "Weight of tumors (g) x ± SD", "setting": "[1]; 12 mg/kg i.v., d0, 4, 8", "result": "1.25 ± 0.71", "unit": "g"}, {"measurement": "Body weight (g) d0", "setting": "[1]; 12 mg/kg i.v., d0, 4, 8", "result": 17.6, "unit": "g"}, {"measurement": "TV (X ± SD, mm^3) d0", "setting": "[1]; 12 mg/kg i.v., d0, 4, 8", "result": "140 ± 24", "unit": "mm^3"}, {"measurement": "Body weight (g) dn", "setting": "[1]; 12 mg/kg i.v., d0, 4, 8", "result": 14.1, "unit": "g"}, {"measurement": "TV (X ± SD, mm^3) dn", "setting": "[1]; 12 mg/kg i.v., d0, 4, 8", "result": "1149 ± 627", "unit": "mm^3"}, {"measurement": "RTV X ± SD", "setting": "[1]; 19 mg/kg i.v., d0, 7", "result": "7.13 ± 6.00"}, {"measurement": "T/C (%)", "setting": "[1]; 19 mg/kg i.v., d0, 7", "result": "32.2* %"}, {"measurement": "T/C (%) (weighing method)", "setting": "[1]; 19 mg/kg i.v., d0, 7", "result": "57.9* %"}, {"measurement": "Weight of tumors (g) x ± SD", "setting": "[1]; 19 mg/kg i.v., d0, 7", "result": "1.09 ± 0.73", "unit": "g"}, {"measurement": "Body weight (g) d0", "setting": "[1]; 19 mg/kg i.v., d0, 7", "result": 17.7, "unit": "g"}, {"measurement": "TV (X ± SD, mm^3) d0", "setting": "[1]; 19 mg/kg i.v., d0, 7", "result": "134 ± 19", "unit": "mm^3"}, {"measurement": "Body weight (g) dn", "setting": "[1]; 19 mg/kg i.v., d0, 7", "result": 13.0, "unit": "g"}, {"measurement": "TV (X ± SD, mm^3) dn", "setting": "[1]; 19 mg/kg i.v., d0, 7", "result": "902 ± 736", "unit": "mm^3"}, {"measurement": "RTV X ± SD", "setting": "[2]; 14th day", "result": "11.2 ± 6.0"}, {"measurement": "T/C (%)", "setting": "[2]; 14th day, TRTV/CRTV×100", "result": 78.3, "unit": "%"}, {"measurement": "Body weight (g) d0", "setting": "[2]; d0: time of the first dosage", "result": 20.7, "unit": "g"}, {"measurement": "TV (X ± SD, mm^3) d0", "setting": "[2]; d0: time of the first dosage", "result": "156 ± 20", "unit": "mm^3"}, {"measurement": "Body weight (g) dn", "setting": "[2]; [4]", "result": 15.6, "unit": "g"}, {"measurement": "TV (X ± SD, mm^3) dn", "setting": "[2]; [4]", "result": "1679 ± 749", "unit": "mm^3"}]}]}
